# Measurements reported in the OPERA property sets (Mansouri et al. 2018).
SMILES,boiling point,melting point,log10 vapour pressure (mmHg),log10 Koc (L/kg),log10 Henry constant (atm·m³/mol),ready biodegradability,log10 Koa
Oc1ccc(O)c(Cl)c1,263 °C,108 °C,,,,,
NCCCNCCCCNCCCN,,29 °C,,,,,
S=c1sccs1,,49 °C,,,,,
Brc1cccc(Br)c1Br,,87.5 °C,,,,,
CC[C@H](C)C(C)(C)C,110 °C,-112 °C,1.51,,,,
CCN(CC)c1nc(Cl)nc(NC(C)C)n1,,,,2.91,,,
N#CSC#N,,63.5 °C,,,,,
COCC(C)=O,116 °C,,,,,,
COc1ccc(N=C=S)cc1,280 °C,18 °C,,,,,
C[SiH](Cl)Cl,41 °C,-93 °C,2.63,,,,
O=C(O)c1cc(Cl)c(Cl)cc1Cl,,166 °C,,,,,
COCC(=O)Cl,112 °C,,,,,,
CCCCCCCCCCCCCCCCCCCCCCCCCCCC(=O)O,,90.9 °C,,,,,
CN1CCC(O)CC1,200 °C,29 °C,,,,,
Fc1cccc(N=C=S)c1,227 °C,,,,,,
CC(=O)[C@H]1CC[C@H]2[C@@H]3C[C@H](C)C4=CC(=O)CC[C@]4(C)[C@H]3[C@@H](O)C[C@]12C,,156 °C,,,,,
CC1CCOC(C)O1 (configuration not stated),116 °C,,,,,,
COCC(C)O (configuration not stated),119 °C,-95 °C,1.1,,-6.04,readily biodegradable,
C1CCC2C(C1)CCC1C3CCCCC3CCC21 (configuration not stated),353 °C,115 °C,,,,,
CCCCCCCCCCCF,,,-0.682,,,,
Cc1cc(C(C)C)ccc1O,230 °C,8.6 °C,,,,,

SMILES,boiling point,melting point,log10 vapour pressure (mmHg),log10 Koc (L/kg),log10 Henry constant (atm·m³/mol),ready biodegradability,log10 Koa
FC(F)OC(F)C(F)(F)F (configuration not stated),23.5 °C,,2.82,,,,
CC1(c2ccccc2)C(=O)NC(=O)NC1=O,,220 °C,,,,,
O=C(O)c1cccc(C(=O)O)c1,,347 °C,,,,readily biodegradable,
CCOc1ccc(C=O)cc1OCC,279 °C,22 °C,,,,,
CC1=NCCO1,111 °C,,,,,,
CC(CBr)c1ccccc1 (configuration not stated),188 °C,-59.3 °C,,,,,
CCCCCCCCCCCCCCCCOC(=O)CCCCCCCCCCCCCCC,,54 °C,,,,,
O=Cc1c(Cl)cccc1Cl,,71.5 °C,,,,not readily biodegradable,
C1=NNCC1,144 °C,,,,,,
COc1ccccc1N1CCN(CCCC(=O)c2ccc(F)cc2)CC1,,68 °C,,,,,
C#CCN1CC(=O)N(COC(=O)[C@@H]2[C@@H](C=C(C)C)C2(C)C)C1=O,,,-7.87,,,,
Cl.NCCc1c[nH]c2ccccc12,,255 °C,,,,,
COc1ccc(Cl)c(Cl)c1Cl,,69.5 °C,,,,,
Nc1nncs1,,191 °C,,,,,
Clc1cccc(-c2c(Cl)c(Cl)c(Cl)c(Cl)c2Cl)c1Cl,,,,,-4.85,,
CC(C1CC1)C(O)(Cn1cncn1)c1ccc(Cl)cc1 (configuration not stated),,108 °C,-6.59,,,,
COC(=O)Nc1nc2cc(C(=O)C3CC3)ccc2[nH]1,,250 °C,,,,,
CC(=O)OC(OC(C)=O)c1ccc([N+](=O)[O-])o1,,91 °C,,,,,
CCCC(Br)CBr (configuration not stated),,,0.153,,,,
CCC(=O)OC/C=C(\C)CCC=C(C)C,253 °C,,,,,,
CC(=O)Oc1ccccc1[N+](=O)[O-],,40.5 °C,-2.66,,,,

SMILES,boiling point,melting point,log10 vapour pressure (mmHg),log10 Koc (L/kg),log10 Henry constant (atm·m³/mol),ready biodegradability,log10 Koa
C=C(C)C(C)CC (configuration not stated),84.3 °C,-134 °C,1.91,,,,
FC(F)(F)c1ccc(Cl)c(Cl)c1,174 °C,-12.5 °C,0.372,,,,
C#CCCCCCC,126 °C,-79.3 °C,1.13,,,,
CCI,72.5 °C,-111 °C,2.13,,,,2.59
NCCCCCN,179 °C,9 °C,,,,,
ClCc1cccc2ccccc12,292 °C,32 °C,,,,,
CC(C)Cl,35.7 °C,-117 °C,2.71,,,,
Cc1cc(N)nc(C)n1,,183 °C,,,,,
O=C(O)c1ccccc1Cc1ccccc1,,118 °C,,,,,
C[C@]12CCC(=O)C=C1CC[C@@H]1[C@@H]2C(=O)C[C@@]2(C)[C@H]1CC[C@]2(O)[C@H](O)CO,,208 °C,,,,,
FC(F)(F)c1ccc(Cl)nc1,153 °C,33 °C,,,,,
CCCC=Cc1ccccc1,217 °C,,,,,,
CCCCCCc1ccccc1,226 °C,-61 °C,-0.919,,,readily biodegradable,
CCCCC(CC)C(=O)OCC(COC(=O)C(CC)CCCC)(COC(=O)C(CC)CCCC)COC(=O)C(CC)CCCC (configuration not stated),,,,,,not readily biodegradable,
N#Cc1c[nH]c2ccccc12,,180 °C,,,,,
Cc1ccc(Br)s1,178 °C,,,,,,
O=C(Cl)c1ccccc1O,,19 °C,,,,,
O=c1ccn([C@@H]2C[C@@H](O)[C@H](CO)O2)c(=O)[nH]1,,163 °C,,,,,
CCc1cccc2c3c([nH]c12)C(CC)(CC(=O)O)OCC3 (configuration not stated),,146 °C,,,,,
Cc1ccc(C(C)C)c(C)c1,197 °C,-82 °C,,,,,
Cc1cc(Cl)ccc1Cl,200 °C,5 °C,,,,,
